Patent publication US6602514B1, “Use of ectoine or ectoine derivatives in cosmetic formulations” (Merck Patent GmbH, priority 1998, dated 2003)

Key:
[1] = system: skin barrier (forearm skin of the subjects); test: In vivo determination of the transepidermal water loss (TEWL) following damage to the skin barrier by SDS treatment; parameters: species or system human; details: N=5; for TEWL after SDS stress: then 2% SDS, occlusion 24 h; for TEWL after ectoin treatment for 1 week: 2 mg/cm^2 twice daily, forearm; for TEWL before treatment: baseline, 22° C., 60% humidity
Procedure: Using the skincare creams (0/W) comprising ectoin described in. Example 4, an in vivo determination of the transepidermal water loss (TEWL) following damage to the skin barrier by SDS treatment is carried out. Firstly, the skin of the subjects (N=5) on the forearm is treated for one week twice daily with the O/W emulsion (2 mg/cm^2) comprising 2% and 5% of ectoin and an emulsion without ectoin (placebo). In order to increase the TEWL artificially as a result of damage to the horny barrier, the skin is then treated with 80 μl of sodium dodecyl sulfate (SDS; 2% in water) in an aluminum chamber with occlusion for 24 h. The TEWL determination is carried out in a climatically controlled room at 22° C. and an atmospheric humidity of 60% using a TM210 TEWA meter. […] The values for FIG. 1 are given in Tab. 1.

human erythrocytes = test: RBC test: membrane-stabilizing action on ectoin pretreated erythrocytes against SDS; assay type: cell-based
Procedure: To determine the cell membrane- and protein-damaging action of surfactants, the RBC Test can, for example, be used. For this, the erythrocytes are incubated e.g. with sodium dodecyl sulfate (SDS), for example for a period of 10 minutes. SDS destabilizes the membrane of untreated cells such that the cells are partially lysed and their contents such as the hemoglobin are released. The hemoglobin released during cell-wall damage serves as an indicator for the spectrophotometric determination of the membrane damage by SDS. By reference to the hemoglobin released, it is possible to determine the number of destroyed erythrocytes.
Using an aqueous ectoin solution buffered in PBS buffer (22.2 mmol/l of disodium hydrogenphosphate, 5.6 mmol/l of potassium dihydrogenphosphate, 123.3 mmol/l of sodium chloride and 10 mmol/l of glucose), a determination of the membrane-stabilizing action of ectoin pretreated human erythrocytes against SDS is carried out. The RBC test is used here. The percentage membrane stabilization of cells pretreated with ectoin is determined.
(§1) Human erythrocytes (2×10^8 cells/ml) are treated for 1 hour with 0%, 0.1%, 0.5%, 1% and 5% of ectoin. The cells are then stressed for 10 min with 0 to 0.04% SDS solution. Then, spectrophotometry is used to determine how many cells have been lysed by reference to the free hemoglobin content. […] The experiment is carried out N=5 times.
as §1, with “In addition, human” for “Human”, “treated with 1% of ectoin” for “treated”, “0 (control), 6, 18” for “1 hour with 0%, 0.1%, 0.5%, 1%”, “24 hours.” for “5% of ectoin.”, “0.04% of” for “0.04%”

Q: How did the “TEWL after SDS stress” value ([1]; O/W emulsion with 2% of ectoin for 1 week) turn out when CC1=N[C@H](C(=O)O)CCN1 [ectoin, (S)-1,4,5,6-tetrahydro-2-methyl-4-pyrimidecarboxylic acid] was run?
A: 14.2 g/m^2/h

Q: What about the “TEWL after ectoin treatment for 1 week” value ([1]; O/W emulsion with 2% of ectoin) of the same molecule?
A: 5.6 g/m^2/h

Q: What about the “TEWL after SDS stress” value ([1]; O/W emulsion with 5% of ectoin for 1 week) of the same molecule?
A: 10.8 g/m^2/h

Q: And the “TEWL after ectoin treatment for 1 week” value ([1]; O/W emulsion with 5% of ectoin)?
A: 5.6 g/m^2/h

Q: What about the TEWL before treatment ([1]; test area for the O/W emulsion with 2% of ectoin) of the same molecule?
A: 5.6 g/m^2/h

Q: What about the TEWL before treatment ([1]; test area for the O/W emulsion with 5% of ectoin) of the same molecule?
A: 5.1 g/m^2/h

Q: And the “dependence of the protective effect on ectoin concentration” value (human erythrocytes; 0.1%, 0.5%, 1%, 5% of ectoin, 1 hour, FIG. 3)?
A: The higher the ectoin concentration, the greater the protective effect

Q: And the “dependence of the protective effect on duration of pretreatment” value (human erythrocytes; 1% of ectoin for 6, 18, 24 hours, FIG. 4)?
A: The longer the cells are pretreated with ectoin, the greater the protective effect

Q: And the “protection of erythrocytes against membrane damage by SDS” value (human erythrocytes; 1 hour pretreatment with 0.1-5% of ectoin, 10 min 0 to 0.04% SDS, FIG. 3)?
A: protects the cells against damage by SDS
